Measured values as given in the SangsterLogP compilation.

Assay: method code SF-HPLC, from DOI: 10.1248/cpb.43.2238

Point of comparison: Clc1ccsc1, logP 2.55. Against it:
- CCCNC(=O)c1cccs1 — lower, 1.68
- N#Cc1cccs1 — lower, 1.34
- COC(=O)c1cccs1 — lower, 1.83
- CC(=O)c1cccs1 — lower, 1.27
- CCCOC(=O)c1ccsc1 — higher, 3.03
- O=[N+]([O-])c1cccs1 — lower, 1.58
- c1ccsc1 — lower, 1.89
- CNC(=O)c1cccs1 — lower, 0.84
- CCOC(=O)c1ccsc1 — lower, 2.32
- CCCOC(=O)c1cccs1 — higher, 3.01
- CNC(=O)c1ccsc1 — lower, 0.81
- CC(=O)c1ccsc1 — lower, 1.26
- CCCNC(=O)c1ccsc1 — lower, 1.65
- CCNC(=O)c1cccs1 — lower, 1.18
- COc1cccs1 — lower, 2.13
- CCNC(=O)c1ccsc1 — lower, 1.18
